# Molecular target: Adenosine receptor A2a (Homo sapiens, UniProt P29274)
# Experiment: Displacement of [3H]5-amino-7-[2- phenethyl]-2-(furan-2-yl)-7H-pyrazolo[4,3-e][l,2,4]triazolo[l,5-c]pyrimidine from human adenosine A2A receptor expressed in HEK293 cell membranes measured after 1 hr by TopCount scintillation counting method
# Adenosine receptor A2a, sequence (P29274 whole entry): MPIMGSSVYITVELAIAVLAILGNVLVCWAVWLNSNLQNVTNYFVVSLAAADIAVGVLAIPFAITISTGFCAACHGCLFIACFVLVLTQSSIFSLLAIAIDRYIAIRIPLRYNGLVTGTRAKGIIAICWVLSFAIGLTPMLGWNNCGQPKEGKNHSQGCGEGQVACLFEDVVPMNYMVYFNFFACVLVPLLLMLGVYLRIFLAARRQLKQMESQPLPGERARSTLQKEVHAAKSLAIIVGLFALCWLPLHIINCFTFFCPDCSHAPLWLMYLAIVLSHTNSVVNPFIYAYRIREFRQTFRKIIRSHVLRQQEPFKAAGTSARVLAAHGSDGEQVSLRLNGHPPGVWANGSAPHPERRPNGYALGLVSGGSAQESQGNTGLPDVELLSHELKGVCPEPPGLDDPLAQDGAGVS
compound,measurement,value
CC(C)OCc1cccc(CNC(=O)c2nc(N)nc3c(F)cccc23)n1,Ki,1 nM

# Source: ChEMBL document CHEMBL3864169, “Quinazoline Carboxamides as Selective Antagonists of Adenosine 2A Receptor” (ACS Med Chem Lett, 2016)
